Source: patent publication US10705094B2, “TNF receptor signaling modulator assay” (UCB Biopharma SRL, priority 2015, dated 2020)

Columns and labels:
[1] = test system: activation of NF-κB by TNFα; test: HEK-293 NF-κB SEAP reporter gene assay, TNFα stimulus; format: cell-based; conditions: Homo sapiens, HEK293; HEK-293 reporter cells, TNFα 0.5 ng/ml
Experimental: (§1) Stimulation of HEK-293 cells by TNF-alpha leads to activation of the NF-kB pathway. The reporter cell line used to determine TNF alpha activity was purchased from Invivogen. HEK-Blue™ CD40L, is a stable transfectant expressing SEAP (secreted alkaline phosphatase) under the control of the IFN-beta minimal promoter fused to 5 NF-kB binding sites. Secretion of SEAP by these cells is stimulated in a concentration dependent manner by TNF-alpha (0.5 ng/ml), IL-1-beta (0.5 ng/ml) and an activating anti-human TNFR1 antibody (300 ng/ml).
Compounds were diluted from 10 mM DMSO stocks (final assay concentration 0.3%) to generate a 10 point 3 fold serial dilution curve (30,000 nM to 2 nM final concentration). They were mixed with stimulating ligand for 1 hour in a 384 well microtitre plate. […] SEAP activity was determined in the supernatant using the colorimetric substrate Quanti-Blue™ (Invivogen).
Percentage inhibitions for compound dilutions were calculated between a DMSO control and maximum inhibition (by excess control compound) and an IC50 calculated using xlfit (4 parameter logistic model) in Activity Base. […]
C87 was preincubated with TNFα for 1 hour prior to the addition to HEK-293 cells stably transfected with SEAP under the control of NFκB. […] The assay was incubated overnight before inhibition was measured compared to 100% blocking by a control compound. […]

[2] = test system: activation of NF-κB by IL-1β; test: HEK-293 NF-κB SEAP reporter gene assay, IL-1β counterscreen; format: cell-based; conditions: Homo sapiens, HEK293; HEK-293 reporter cells, IL-1β 0.5 ng/ml
Experimental: as §1
(§2) Compounds were diluted from 10 mM DMSO stocks (final assay concentration 0.3%) to generate a 10 point 3 fold serial dilution curve (30,000 nM to 2 nM final concentration). They were mixed with stimulating ligand for 1 hour in a 384 well microtitre plate. Freshly thawed and washed cells were added to the compound/stimulus mixture and further incubated for 18 hours. SEAP activity was determined in the supernatant using the colorimetric substrate Quanti-Blue™ (Invivogen).
(§3) Percentage inhibitions for compound dilutions were calculated between a DMSO control and maximum inhibition (by excess control compound) and an IC50 calculated using xlfit (4 parameter logistic model) in Activity Base.
(§4) The specific activity of each compound against the TNF-alpha response was compared to that seen with the counterscreens (IL-1beta and anti-human TNFR1 antibody).

[3] = test system: activation of NF-κB by activating anti-human TNFR1 antibody; test: HEK-293 NF-κB SEAP reporter gene assay, activating TNF-R1 antibody counterscreen; format: cell-based; conditions: HEK293, HEK-293 reporter cells, antibody 300 ng/ml
Experimental: as §1, §2, §3, §4

TNFα and TNF-R = TNFα and TNF-R (Homo sapiens, UniProt P01375); test: LC-MS analysis of size exclusion fractions of TNFα, TNF-R and compound; format: binding; conditions: compound added before or after TNFα/TNF-R complex formation
Experimental: Fractions from size exclusion chromatographic separation of mixtures of TNFα, TNF-R and the compound of formula (1) were analysed by liquid chromatography-mass spectrometry (LC-MS). Two samples were prepared for size exclusion chromatography.

CD40L = target: T1, CD40L (Homo sapiens, UniProt P29965); test: Mass spectrometric analysis of CD40L trimer stabilisation; format: binding; conditions: in the presence of DMSO
T1 sequence (P29965 113-261 limits assumed): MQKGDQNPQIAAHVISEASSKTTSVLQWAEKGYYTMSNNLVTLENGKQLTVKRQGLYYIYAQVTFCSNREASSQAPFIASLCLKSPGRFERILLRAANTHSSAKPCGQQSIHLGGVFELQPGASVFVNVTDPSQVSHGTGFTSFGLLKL
Description: Mass spectrometric analysis has shown that CD40L, which also forms homotrimers, is destabilised by DMSO, resulting in a reduced amount of the trimeric CD40L. The assay protocol used was the same as that described in Example 3 for TNFα, but using CD40L instead.

Chain of TNFα and TNF-R (P01375 77-233 limits assumed): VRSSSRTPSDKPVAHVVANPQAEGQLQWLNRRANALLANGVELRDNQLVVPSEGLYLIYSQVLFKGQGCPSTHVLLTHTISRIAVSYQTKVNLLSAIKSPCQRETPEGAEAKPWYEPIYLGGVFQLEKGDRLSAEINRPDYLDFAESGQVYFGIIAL
Chain of TNFα and TNF-R (P19438 30-211 partner limits assumed): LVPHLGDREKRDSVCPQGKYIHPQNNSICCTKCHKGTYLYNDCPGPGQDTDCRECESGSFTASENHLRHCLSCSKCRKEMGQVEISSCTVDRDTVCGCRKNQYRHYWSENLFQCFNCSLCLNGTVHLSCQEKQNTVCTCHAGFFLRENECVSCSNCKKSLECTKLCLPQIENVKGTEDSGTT

Compound	IC50 [1] [µM]	IC50 [2] [µM]	IC50 [3] [µM]	binding to TNFα in the presence of TNF-R (TNFα and TNF-R)	stabilisation of trimeric CD40L (CD40L)
Cc1ccc(C)c(Cn2c(C(O)c3ccncc3)nc3ccc(-c4cnn(C)c4)cc32)c1 (centres unmarked) [Compound (2), [1-(2,5-Dimethylbenzyl)-6-(1-methyl-1H-pyrazol-4-yl)-1H-benzimidazol-2-yl](pyridin-4-yl)methanol]	0.113	> 30	> 30	–	–
Cc1ccc(C)c(Cn2c(C(O)c3ccncc3)nc3ccccc32)c1 (centres unmarked) [Compound (1), [1-(2,5-Dimethylbenzyl)-1H-benzimidazol-2-yl](pyridin-4-yl)methanol]	–	–	–	binds to TNFα even in the presence of TNF-R	stabilise trimeric CD40L
